# pIC50: −log10 of the molar value. Structures can show the parent of a compound that is named as a salt.
# Target: α7-subtype of nicotinic receptors (Rattus norvegicus, UniProt Q05941)
# Assay: biochemical
# Assay type: binding
# α7-subtype of nicotinic receptors, sequence (Q05941 23-502): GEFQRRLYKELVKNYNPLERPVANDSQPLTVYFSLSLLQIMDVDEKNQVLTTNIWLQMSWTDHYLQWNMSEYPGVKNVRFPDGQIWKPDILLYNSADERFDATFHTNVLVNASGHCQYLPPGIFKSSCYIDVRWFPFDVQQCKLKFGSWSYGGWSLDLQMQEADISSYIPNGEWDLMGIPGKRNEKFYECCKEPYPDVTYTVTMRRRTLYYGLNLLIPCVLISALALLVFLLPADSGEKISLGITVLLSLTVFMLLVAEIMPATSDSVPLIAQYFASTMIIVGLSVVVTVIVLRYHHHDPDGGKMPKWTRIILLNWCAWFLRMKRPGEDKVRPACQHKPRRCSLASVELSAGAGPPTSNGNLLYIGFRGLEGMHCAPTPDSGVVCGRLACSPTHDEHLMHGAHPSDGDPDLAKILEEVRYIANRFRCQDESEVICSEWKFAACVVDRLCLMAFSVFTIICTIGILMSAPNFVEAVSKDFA
compound,measurement,value
"c1ccc2c(c1)oc1c(-c3nnc(N4CCN5CCC4CC5)o3)cccc12 [Compound 1, 4-(5-Dibenzofuran-4-yl-[1,3,4]oxadiazol-2-yl)-1,4-diaza-bicyclo[3.2.2]nonane fumaric acid salt]",pIC50,7.80

# Reference: patent US20120028968A1 (priority 2009, published 2012)
